Laboratory results published in the supplement of paper PMC10307832.

What was measured:
Test in all cases: relative viability (nuclei count vs DMSO), 5 days (fraction); higher = more cells survive
[1] = compound: CC1=CC(=CC=C1)NC2=NC(=CS2)C3=CC=NC=C3 + CC(C)C[C@H](NC(=O)[C@H](Cc1ccccc1)NC(=O)c1cnccn1)B(O)O [Bortezomib] (partner 0.002 µM)
How it was run: (§1)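 The day after seeding in 1536-well plates, lung cancer cell lines were treated by pin tool with a single drug, or with a fixed anchor-drug dose together with five library-drug doses (not always all listed) in √10 steps. After 5 days, a combined fix-and-stain solution (final 0.05% Triton X-100, 1% formaldehyde, 1 ug/ml Hoechst) was added. Nuclei counted on 4× images gave relative viability as treated counts over vehicle counts, reported as the median of duplicate plates.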

[2] = compound: CC1=CC(=CC=C1)NC2=NC(=CS2)C3=CC=NC=C3 + C[C@]1(O)C[C@@H](c2nc(-c3ccc4ccc(-c5ccccc5)nc4c3)c3c(N)nccn32)C1 [Linsitinib] (partner 1 µM)
How it was run: as §1

[3] = compound: Cc1ccc(NC(=O)c2ccc(CN3CCN(C)CC3)cc2)cc1Nc1nc(-c2cccnc2)cs1 [Masitinib] + CC(=O)c1c(C)c2cnc(Nc3ccc(N4CCNCC4)cn3)nc2n(C2CCCC2)c1=O [Palbociclib] (partner 0.5 µM)
How it was run: as §1

[4] = compound: Cc1ccc(NC(=O)c2ccc(CN3CCN(C)CC3)cc2)cc1Nc1nc(-c2cccnc2)cs1 [Masitinib] + Cc1nc(Nc2ncc(C(=O)Nc3c(C)cccc3Cl)s2)cc(N2CCN(CCO)CC2)n1 [Dasatinib] (partner 0.075 µM)
How it was run: as §1

| Cell Line | relative viability ([1]; first compound 0.08 µM) | relative viability ([1]; first compound 0.253 µM) | relative viability ([1]; first compound 0.8 µM) | relative viability ([1]; first compound 2.53 µM) | relative viability ([1]; first compound 8 µM) | relative viability ([2]; first compound 0.08 µM) | relative viability ([2]; first compound 0.253 µM) | relative viability ([2]; first compound 0.8 µM) | relative viability ([2]; first compound 2.53 µM) | relative viability ([2]; first compound 8 µM) | relative viability ([3]; first compound 0.01 µM) | relative viability ([3]; first compound 0.03162 µM) | relative viability ([3]; first compound 0.1 µM) | relative viability ([3]; first compound 0.3162 µM) | relative viability ([3]; first compound 1 µM) | relative viability ([4]; first compound 0.03162 µM) | relative viability ([4]; first compound 0.1 µM) | relative viability ([4]; first compound 0.3162 µM) | relative viability ([4]; first compound 1 µM) | relative viability ([4]; first compound 0.01 µM) |
| --- | --- | --- | --- | --- | --- | --- | --- | --- | --- | --- | --- | --- | --- | --- | --- | --- | --- | --- | --- | --- |
| NCI-H1666 | 0.503 | 0.553 | 0.41 | 0.388 | 0.409 | 0.781 | 0.614 | 0.432 | 0.474 | 0.41 | 0.665 | 0.63 | 0.696 | 0.628 | 0.617 | 0.713 | 0.858 | 0.818 | 0.817 | – |
| NCI-H1734 | 0.906 | 0.874 | 0.941 | 0.919 | 0.36 | 0.828 | 0.981 | 0.869 | 0.835 | 0.719 | 0.362 | 0.327 | 0.393 | 0.394 | 0.335 | 0.521 | 0.508 | 0.518 | 0.416 | 0.449 |
| NCI-H1755 | 0.937 | 0.886 | 0.832 | 0.819 | 0.572 | 0.949 | 0.886 | 0.857 | 0.911 | 0.677 | 0.428 | 0.474 | 0.448 | 0.491 | 0.402 | 0.455 | 0.451 | 0.422 | 0.383 | – |
| NCI-H1792 | 0.954 | 0.75 | 0.784 | 0.81 | 0.898 | 0.322 | 0.33 | 0.389 | 0.377 | 0.398 | 0.572 | 0.448 | 0.701 | 0.611 | 0.611 | 0.342 | 0.83 | 0.718 | 1.32 | 0.757 |
| NCI-H1915 | 0.976 | 0.973 | 0.944 | 0.846 | 0.762 | 1.1 | 1.08 | 1.05 | 1.09 | 0.989 | – | 0.518 | – | 0.536 | 0.642 | 0.214 | – | 0.319 | 0.276 | – |
| NCI-H1975 | 0.361 | 0.352 | 0.374 | 0.267 | 0.171 | 0.825 | 0.868 | 0.702 | 0.754 | 0.738 | 0.424 | 0.517 | 0.468 | 0.399 | 0.587 | 0.403 | 0.427 | – | 0.279 | 0.427 |
| NCI-H1993 | 1 | 1.03 | 0.885 | 0.894 | 0.993 | 0.675 | 0.605 | 0.714 | 0.698 | 0.738 | 0.674 | 0.527 | 0.536 | 0.516 | 0.654 | 0.508 | 0.577 | 0.532 | 0.52 | 0.554 |
| NCI-H2009 | 0.829 | 0.894 | 1.04 | 1 | 0.724 | 1.15 | 1.16 | 1.1 | 1.18 | 1.15 | 0.207 | 0.214 | 0.236 | 0.17 | 0.204 | 0.284 | 0.324 | 0.283 | 0.244 | 0.291 |
| NCI-H2023 | 0.899 | 0.873 | 0.959 | 0.949 | 0.543 | 0.63 | 0.666 | 0.618 | 0.678 | 0.507 | 0.311 | 0.385 | 0.323 | 0.259 | 0.331 | 0.602 | 0.543 | 0.395 | 0.513 | 0.551 |
| NCI-H2085 | 1.02 | 1.07 | 1.06 | 0.94 | 0.574 | 0.901 | 0.952 | 0.911 | 0.838 | 0.578 | 0.432 | 0.493 | 0.486 | 0.491 | 0.459 | 0.249 | 0.242 | 0.278 | 0.215 | 0.215 |
| NCI-H2087 | 0.708 | 0.825 | 0.844 | 0.666 | 0.3 | 0.934 | 0.862 | 0.996 | 0.888 | 0.798 | 0.211 | 0.221 | 0.234 | 0.198 | 0.237 | 0.927 | 1.01 | 0.775 | 0.788 | 0.922 |
| NCI-H2126 | 1.06 | 1.04 | 1.16 | 0.989 | 0.91 | 0.671 | 0.694 | 0.71 | 0.726 | 0.657 | 0.33 | 0.341 | 0.376 | 0.337 | 0.379 | 0.537 | 0.653 | 0.369 | 0.525 | 0.681 |
| NCI-H2228 | 0.892 | 0.761 | 0.771 | 0.925 | 0.714 | 0.569 | 0.629 | 0.408 | 0.586 | 0.705 | 0.518 | 0.723 | 1.12 | 0.844 | 0.486 | 0.461 | 0.729 | 0.523 | 0.425 | 0.544 |
| NCI-H2347 | 0.748 | 0.74 | 0.847 | 0.804 | 0.57 | 0.751 | 0.802 | 0.688 | 0.948 | 0.93 | 0.381 | 0.389 | 0.408 | 0.422 | 0.444 | 0.293 | 0.274 | 0.279 | 0.262 | 0.325 |
| NCI-H2405 | 0.929 | 0.87 | 0.87 | 0.774 | 0.903 | 0.777 | 0.927 | 0.799 | 0.999 | 0.926 | 0.48 | 0.504 | 0.508 | 0.499 | 0.514 | 0.214 | 0.213 | 0.238 | 0.193 | 0.2 |
| NCI-H3122 | 1.03 | 1.07 | 1.06 | 0.996 | 1.03 | 0.991 | 0.938 | 0.907 | 1 | 0.964 | 0.163 | 0.197 | 0.227 | 0.18 | 0.175 | 0.724 | 0.61 | 0.615 | 0.916 | 0.512 |
